Experimental data published in US20110143948A1, “MOLECULAR SIGNATURES AND BIOMARKERS ASSOCIATED WITH MELANOMA AND METHODS OF USE THEREOF” (priority 2008, published 2011).

Tested on: ncRNAs (SEQ ID NO 28-89)
Assay: ncRNA arrays of melanocytes, keratinocytes, normal skin, melanoma cell lines and patient samples
Design: species or system human
Settings: for ncRNA array expression, patient 2: melanoma patient 2 sample compared to normal skin; for ncRNA array expression, patient 3: melanoma patient 3 sample compared to normal skin; for ncRNA array expression, patient 4: melanoma patient 4 sample compared to normal skin; for ncRNA array expression, patient 5: melanoma patient 5 sample compared to normal skin; for ncRNA array expression, patient 6: melanoma patient 6 sample compared to normal skin; for ncRNA array expression, patient 7: melanoma patient 7 sample compared to normal skin; for ncRNA array expression, patient 8: melanoma patient 8 sample compared to normal skin; for ncRNA array expression, patient 9: melanoma patient 9 sample compared to normal skin; for ncRNA array expression, patient 10: melanoma patient 10 sample compared to normal skin; for ncRNA array expression, patient 19: melanoma patient 19 sample compared to normal skin; for ncRNA array expression, patient 20: melanoma patient 20 sample compared to normal skin; for ncRNA array expression, patient 21: melanoma patient 21 sample compared to normal skin; for ncRNA array expression, patient 22: melanoma patient 22 sample compared to normal skin; for ncRNA array expression, patient 23: melanoma patient 23 sample compared to normal skin; for ncRNA array expression, patient 24: melanoma patient 24 sample compared to normal skin; for ncRNA array expression, patient 25: melanoma patient 25 sample compared to normal skin; for ncRNA array expression, patient 26: melanoma patient 26 sample compared to normal skin; for ncRNA array expression, patient 27: melanoma patient 27 sample compared to normal skin; for ncRNA array expression, patient 28: melanoma patient 28 sample compared to normal skin; for ncRNA array expression, patient 29: melanoma patient 29 sample compared to normal skin; for ncRNA array expression, patient 30: melanoma patient 30 sample compared to normal skin
In short: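 Differential ncRNA expression was defined against melanocytes or normal skin after subtracting keratinocyte-specific signals, with confirmation by qRT-PCR and Northern blot. Samples were melanoma cell lines, patient tumours, melanocytes, keratinocytes and normal skin, hybridised to a >10,000-probe (>200 nt) ncRNA array that also carries RefSeq mRNA probes.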

| Substance | ncRNA array expression, patient 2 | ncRNA array expression, patient 3 | ncRNA array expression, patient 4 | ncRNA array expression, patient 5 | ncRNA array expression, patient 6 | ncRNA array expression, patient 7 | ncRNA array expression, patient 8 | ncRNA array expression, patient 9 | ncRNA array expression, patient 10 | ncRNA array expression, patient 19 | ncRNA array expression, patient 20 | ncRNA array expression, patient 21 | ncRNA array expression, patient 22 | ncRNA array expression, patient 23 | ncRNA array expression, patient 24 | ncRNA array expression, patient 25 | ncRNA array expression, patient 26 | ncRNA array expression, patient 27 | ncRNA array expression, patient 28 | ncRNA array expression, patient 29 | further results |
| --- | --- | --- | --- | --- | --- | --- | --- | --- | --- | --- | --- | --- | --- | --- | --- | --- | --- | --- | --- | --- | --- |
| SEQ ID NO 60 (ACTAACAGCACTGGAGGGTGTAGTGTTTCCTACTTTATGGATGAGTGTACTGTGGGCTTC; listed as DNA, chemistry not given here; listed as Homo sapiens) | 2.776 | 2.279 | 2.327 | 0.8655 | −1.218 | 2.958 | 0.3154 | 1.739 | 2.002 | 0.3888 | 2.119 | 0.7491 | 3.236 | 1.416 | 1.295 | 1.226 | 1.537 | 1.485 | 0.6983 | 1.398 | ncRNA array expression, patient 30: 0.02973 |
| SEQ ID NO 61 (CATACATTGCCCTCACTAATCAATGGACATTTCAGCATTTCATTACTAATTTTGAGAGAA; listed as DNA, chemistry not given here; listed as Homo sapiens) | 1.244 | 1.117 | 1.12 | 3.917 | 0.992 | 2.069 | 1.86 | 1.694 | 3.678 | 0.6865 | −0.03568 | 1.984 | −0.1143 | 0.5527 | 3.802 | 2.349 | 2.817 | 1.264 | 2.585 | 3.112 | ncRNA array expression, patient 30: 0.254 |
| SEQ ID NO 62 (AATCGTTAATATCATTGATATTAAGTAATTTCCCCACTCTGAGTGAATACTTTGATGATG; listed as DNA, chemistry not given here; listed as Homo sapiens) | 1.565 | 1.466 | 3.47 | 1.994 | 0.5751 | 2.152 | 0.2609 | 0.5801 | 1.264 | 1.414 | 1.836 | 0.6984 | 0.4968 | −0.5784 | 3.5 | 3.363 | 2.394 | 1.855 | 1.418 | 1.3702 | ncRNA array expression, patient 30: −1.545 |
| SEQ ID NO 63 (CTCACACGCACCCTTTCACTGTTTCTTAGTAATTTGTTTGTCTACAGACACAGACGGGAA; listed as DNA, chemistry not given here; listed as Homo sapiens) | −1.694 | −1.565 | −1.396 | −1.315 | −0.5921 | −1.305 | −1.26 | −1.429 | −1.417 | −1.154 | −1.232 | −1.397 | −0.3562 | −0.04699 | −1.093 | −2.099 | −2.008 | −1.525 | −1.601 | −1.862 | ncRNA array expression, patient 30: 1.622 |
| SEQ ID NO 64 (TTGCCTAGGAACAAAGAAGGCTTGTGAGGAGATCAAGGAACTTACATGAAATTGTAGGAA; listed as DNA, chemistry not given here; listed as Homo sapiens) | 2.496 | 1.673 | 4.824 | 1.546 | 1.8 | 1.389 | 2.2638 | 1.339 | 2.481 | 0.2184 | 2.311 | 2.601 | 1.302 | 0.9911 | 2.424 | 2.502 | 2.729 | 2.69 | 2.932 | 1.473 | ncRNA array expression, patient 30: −2.097 |
| SEQ ID NO 65 (CACCGTTTTACTTTTTGTGGGGAGGGGAAGCAGTATCAAAATTTCTTCGGGCGCCAGAAC; listed as DNA, chemistry not given here; listed as Homo sapiens) | −1.177 | −1.344 | −1.215 | −1.301 | −1.643 | −1.264 | −1.391 | −1.267 | −0.3046 | −0.6567 | −1.283 | −1.289 | −1.03 | −1.597 | −1.241 | −1.384 | −1.415 | −1.388 | −1.421 | −1.2518 | ncRNA array expression, patient 30: 0.5803 |
